Measurements taken from patent US10351871B2, “Desaturases and methods of using them for synthesis of polyunsaturated fatty acids” (Washington State University, priority 1998, dated 2019).
Blank lines part the entries; values can stand above or below the compound they belong to.

How the values were obtained:
[1] = target: T1, C. elegans Δ^5-desaturase (FAT-4) (Caenorhabditis elegans, UniProt G5EG11); test: C. elegans FAT-4 (pYES2, fat-4) expressed in yeast fed fatty acid substrates, GC analysis; type: cell-based; conditions: for substrate converted to desaturation product: yeast expressing FAT-4, 2% galactose, 0.2 mM fatty acid, 16 hours, 18:1 is endogenous; for amount desaturated relative to conventional substrate 20:3Δ^8,11,14: yeast expressing the C. elegans Δ^5-desaturase gene; for activity of FAT-4 on substrate (in words): yeast expressing FAT-4, substrate fed
T1 construct: The resulting peptide length was 447 amino acids instead of the previously predicted 454 amino acids; expressed in transfected cells; host or cells: Saccharomyces cerevisiae INVSc1, plasmid pYFAT4 (pYES2, GAL1 promoter)
T1 sequence (G5EG11 1-447): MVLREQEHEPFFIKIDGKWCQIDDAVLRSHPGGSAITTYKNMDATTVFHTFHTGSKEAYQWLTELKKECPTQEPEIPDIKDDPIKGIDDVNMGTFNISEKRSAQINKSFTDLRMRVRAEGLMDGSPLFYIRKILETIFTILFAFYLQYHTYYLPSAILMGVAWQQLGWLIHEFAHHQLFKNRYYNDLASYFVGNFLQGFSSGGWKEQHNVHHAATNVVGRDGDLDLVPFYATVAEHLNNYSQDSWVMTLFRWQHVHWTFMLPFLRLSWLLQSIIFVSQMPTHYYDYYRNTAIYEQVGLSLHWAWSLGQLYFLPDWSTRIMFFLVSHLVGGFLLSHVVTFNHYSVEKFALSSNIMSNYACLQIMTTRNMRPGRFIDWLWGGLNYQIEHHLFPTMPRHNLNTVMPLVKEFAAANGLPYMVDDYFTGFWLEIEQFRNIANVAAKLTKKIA
Procedure: To express the C. elegans Δ^5-desaturase, the fat-4 cDNA amplification product (see Example 3) was digested with HindIII and BamH1 and ligated to the yeast expression vector pYES2 (Invitrogen) cut with HindIII and BamH1. The resulting plasmid was named pYFAT4.
For the C. elegans Δ^5 gene, the constructs were transformed into Saccharomyces cerevisiae strain INVSc1 using the S.c. EasyComp transformation kit (Invitrogen). For experiments with the FAT-4 peptide, transformed yeast were grown overnight in uracil-deficient media containing 2% galactose, 0.2 mM fatty acid, and 1% NP-40.
(§1) Extraction of lipids and preparation of fatty acid methyl esters was carried out by standard methods (Miguel and Browse, J. Biol. Chem. 267:1502-1509, 1992). Gas chromatography of the methyl esters was conducted by established methods (Spychalla et al., Proc. Natl. Acad. Sci. USA 94:1142-1147, 1997). Fatty acid 4,4-Dimethyloxazoline (DMOX) derivatives of yeast lipid extracts were prepared by standard methods (Fay and Richli, J. Chromatogr. 541:89-98, 1991). GC-mass spectrometry was conducted on a Hewlett-Packard 6890 series GC-MS fitted with a 30 m×[…] HPSMS column, operating at an ionization voltage of 70 eV with a scan range of 50-550 Da. Fatty acids and their derivatives were identified where possible by comparison with authentic standards (NuCheck Prep).
To determine the enzymatic activity of the FAT-4 desaturase-like protein, the protein was expressed in Saccharomyces cerevisiae supplemented with polyunsaturated fatty acid substrates that are not normally present in this yeast. The FAT-4 protein was expressed in the yeast expression vector pYES2 from the GAL1 promoter by growing the cells in the presence of galactose and various fatty acids. After 16 hours of growth, the cells were analyzed for total fatty acid composition by gas chromatography (GC).

[2] = target: T2, C. elegans Δ^6-desaturase (FAT-3) (Caenorhabditis elegans, UniProt Q23221); test: C. elegans FAT-3 expressed in yeast (pMK195, ADH promoter), substrate desaturation; type: cell-based; conditions: yeast expressing fat-3 from pMK195
T2 construct: Codons for amino acid residues 38-67 of W08D2.4 were not present in the cDNA; expressed in transfected cells; host or cells: yeast (Saccharomyces cerevisiae), vector pMK195, constitutive ADH promoter
T2 sequence (Q23221 1-443): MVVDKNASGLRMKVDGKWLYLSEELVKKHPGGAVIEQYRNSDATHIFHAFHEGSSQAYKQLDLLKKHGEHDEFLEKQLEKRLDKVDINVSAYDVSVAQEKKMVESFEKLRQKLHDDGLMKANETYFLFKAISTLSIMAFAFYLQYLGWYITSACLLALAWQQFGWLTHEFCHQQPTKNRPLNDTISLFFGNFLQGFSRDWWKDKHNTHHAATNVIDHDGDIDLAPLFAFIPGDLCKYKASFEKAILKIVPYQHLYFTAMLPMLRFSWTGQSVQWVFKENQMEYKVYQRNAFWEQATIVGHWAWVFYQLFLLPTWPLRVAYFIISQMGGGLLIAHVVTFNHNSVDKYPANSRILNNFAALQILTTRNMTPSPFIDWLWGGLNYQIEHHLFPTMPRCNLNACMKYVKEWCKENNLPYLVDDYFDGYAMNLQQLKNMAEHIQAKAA
Text: The fat-3 gene was expressed in the yeast expression vector pMK195 containing the constitutive ADH promoter.

[3] = target: T3, Δ^5-desaturase activity in microsomal extracts of mammalian liver (Rattus norvegicus, UniProt Q920R3); conditions: labeled substrate; cited from earlier work
T3 construct: the rates of desaturation in microsomal extracts of mammalian liver; host or cells: microsomal extracts of mammalian liver
T3 sequence (Q920R3 whole entry, stated change not applied): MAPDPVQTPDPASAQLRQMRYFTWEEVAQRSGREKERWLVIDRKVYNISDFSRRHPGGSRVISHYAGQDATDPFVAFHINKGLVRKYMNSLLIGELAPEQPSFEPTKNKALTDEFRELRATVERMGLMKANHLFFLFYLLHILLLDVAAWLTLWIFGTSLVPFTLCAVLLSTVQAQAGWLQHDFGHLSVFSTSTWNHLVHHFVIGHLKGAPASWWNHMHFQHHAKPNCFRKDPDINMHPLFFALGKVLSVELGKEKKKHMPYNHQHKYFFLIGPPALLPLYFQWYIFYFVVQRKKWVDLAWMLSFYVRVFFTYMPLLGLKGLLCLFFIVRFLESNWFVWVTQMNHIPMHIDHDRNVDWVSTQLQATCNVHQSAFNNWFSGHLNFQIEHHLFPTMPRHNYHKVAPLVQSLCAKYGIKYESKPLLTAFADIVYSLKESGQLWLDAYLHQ

Δ^5- and Δ^8-desaturases = test: Yeast cell transformed with both Δ^5- and Δ^8-desaturase genes (pYFAT4 + pYX232-541) fed fatty acid substrates, GC; type: cell-based, Saccharomyces cerevisiae; conditions: for One added desaturation / Unconverted substrate: overnight culture at 28° C.; for Doubly desaturated product: products 20:5 (5, 8, 11, 14, 17), 20:4 (5, 8, 11, 14), 20:3 (5, 8, 11)
Text: The cDNA portion of pJW541 (Wallis and Browse, Arch. Biochem. Biophys. 365:307-316, 1999) containing the Euglena Δ^8-desaturase was excised from that plasmid with the restriction enzymes EcoRI and SpeI. The purified DNA fragment representing the insert was ligated into the yeast expression vector pYX232 (R&D Systems, Inc.) that had been prepared by digestion with EcoRI and NheI, to give compatible sticky ends. (Plasmid pYX232 carries the marker conferring yeast prototrophy for tryptophan (TRP1 mutation), and uses the triose phosphate isomerase (TPI) promoter for constitutive expression of the inserted DNA.) The resulting plasmid, pYX232-541, was introduced into the Saccharomyces cerevisiae strain already harboring the Δ^5-desaturase (pYFAT4; Watts and Browse, Arch. Biochem. Biophys. 362:175-182, 1999) plasmid that confers yeast prototrophy for uracil using a lithium acetate transformation procedure (Invitrogen). Transformants were selected simultaneously for uracil and tryptophan prototrophy. Selected colonies arising after the transformation were inoculated into yeast minimal medium that also lacked both uracil and tryptophan.
For analysis of activity, separate cultures were supplemented with one of three fatty acid substrates provided as sodium salts as described (Wallis and Browse, Arch. Biochem. Biophys. 365:307-316, 1999). After overnight culture at 28° C., the cultures were harvested by centrifugation and washed. Fatty acid methyl esters were prepared using the standard methods described in Miguel and Browse J. Biol. Chem. 267:1502-1509, 1992.

[4] = target: T4, Euglena Δ^8-desaturase (EFD1) (Euglena gracilis, UniProt Q9SWQ9); type: cell-based; conditions: for substrate preference over 20:1: EFD1 expressed in yeast; for desaturated share of the total incorporated 20-carbon fatty acid: S. cerevisiae with pYES2-541, 2% galactose, 0.2 mM fatty acid soap, overnight at 28° C.; for desaturation of Δ^5 and Δ^6 substrates by EFD1 (in words): S. cerevisiae with pYES2-541, medium supplemented with the fatty acid
T4 construct: The resulting yeast expression construct containing the open reading frame under the control of a galactose-inducible promoter was designated pYES2-541; expressed in transfected cells; host or cells: Saccharomyces cerevisiae INVSc1, plasmid pYES2-541 (GAL1 promoter)
T4 sequence (Q9SWQ9 other isoform, or with tags, fused parts or gaps with the stated changes): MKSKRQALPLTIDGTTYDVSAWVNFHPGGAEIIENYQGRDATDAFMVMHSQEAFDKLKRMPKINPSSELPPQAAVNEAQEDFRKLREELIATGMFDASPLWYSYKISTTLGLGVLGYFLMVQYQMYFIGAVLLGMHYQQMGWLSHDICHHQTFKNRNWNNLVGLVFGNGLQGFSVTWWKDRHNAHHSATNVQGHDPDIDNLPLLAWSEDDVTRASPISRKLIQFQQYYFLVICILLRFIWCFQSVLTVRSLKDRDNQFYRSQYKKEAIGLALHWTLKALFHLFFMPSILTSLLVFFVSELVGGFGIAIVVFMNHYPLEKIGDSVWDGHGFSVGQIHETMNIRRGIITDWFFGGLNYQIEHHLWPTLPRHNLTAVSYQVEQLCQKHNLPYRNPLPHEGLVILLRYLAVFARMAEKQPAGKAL
Text: For E. gracilis, the cloned Δ^8 gene was transferred to the yeast expression vector pYES2 (Invitrogen, Carlsbad, Calif.) by standard cloning techniques (Ausubel, Current Protocols In Molecular Biology, 1988) using enzymes obtained from New England Biolabs, Beverly, Mass. The resulting yeast expression construct containing the open reading frame under the control of a galactose-inducible promoter was designated pYES2-541.
Saccharomyces cerevisiae strain INVSc1 (Invitrogen) was transformed with pYES2-541 and cultured using standard methods (Ausubel, Current Protocols In Molecular Biology, 1988). Liquid medium containing 2% galactose was supplemented with fatty acid soaps (NuCheck Prep, Elysian Minn.) at a final concentration of 0.2 mM. Tergitol (1%, NP40) was added to the yeast cultures to enhance fatty acid uptake (Stukey et al., J. Biol. Chem. 264:16537-16544, 1989), except for cultures containing 20:1, where 5% DMSO was substituted. Yeast were incubated overnight at 28° C., harvested by centrifugation, washed once with 1% Tergitol, once with 0.5% Tergitol, and finally once with distilled water.
as §1
To confirm the activity of the enzyme, the EFD1 cDNA was transferred from pJW541 to yeast expression vector pYES2 under the control of a galactose-inducible promoter. The resulting construct, pYES2-541, was introduced into S. cerevisiae. […] Accordingly, yeast cultures were supplemented with various fatty acid soaps, using a yeast strain containing the empty vector as control, and analyzed the fatty acids of the cultures by methyl-ester derivatization and gas chromatography.

Δ^5-desaturase = target: T5, Δ^5-desaturase (Caenorhabditis elegans, UniProt G5EG11); test: Arabidopsis plants doubly transformed with both desaturases, seed fatty acid methyl ester analysis; type: in vivo; conditions: seed from plants doubly transformed with both desaturases
T5 construct: expressed in transfected cells; host or cells: Arabidopsis plants (seed) doubly transformed with Δ8 and Δ5 constructs
T5 sequence (G5EG11 1-447): T1 sequence (G5EG11 1-447)
Text: For example, the expression of the Δ^5- and Δ^8-desaturases in a plant, such as Arabidopsis, can be achieved by constructing a plant transformation vector to introduce the cDNA of each desaturase into the plant. The vector can contain a tissue specific promoter so that the desaturase protein will be expressed during seed development. Examples of seed specific promoters include that for phaseolin (van der Geest and Hall, Plant Mol. Biol. 32:579-88, 1996) or the promoter for napin (Stalberg et al., Plant Mol. Biol. 23: 671-83, 1993). Other seed-specific promoters that can be used are those located on the genomic BAC clone T24A18 (LOCUS ATT24A18. (1999) 45980 bp Arabidopsis thaliana DNA chromosome 4, ACCESSION # AL035680, NID g4490701) of the Arabidopsis genome. […] Transformation of Arabidopsis is readily achieved using the Agrobacterium-mediated vacuum infiltration process (Katavic et al., Mol. Gen. Genet. 245:363-70, 1994) or the floral dip modification of it (Clough and Bent, Plant J. 16:735-43, 1998), although several other methods are also commonly used. […] Since the Δ^8 and Δ^5 constructs use different selectable markers the double transformants are readily isolated. […] The seeds of transformed plants are analyzed by isolation of fatty acid methyl esters followed by gas chromatography to determine the fatty acid composition.

SMILES: CCCCC/C=C\C/C=C\C/C=C\CCCCCCC(=O)O [di-homo-γ-linolenic acid]
substrate converted to desaturation product [1]: 55%
activity of FAT-3 on substrate (in words) [2]: no activity

SMILES: CCCCCC=CCC=CCCCCCCCCCC(=O)O [20:2Δ^11,14]
substrate converted to desaturation product [1]: 27%
amount desaturated relative to conventional substrate 20:3Δ^8,11,14 [1]: less than half
rate of conversion to 20:3Δ^5,11,14 relative to rate of conversion of labeled 20:3Δ^8,11,14 to 20:4Δ^5,8,11,14 [3]: 41%
One added desaturation (Δ^5- and Δ^8-desaturases): 18 mass percent of incorporated 20-carbon fatty acids
Unconverted substrate (Δ^5- and Δ^8-desaturases): 70 mass percent of incorporated 20-carbon fatty acids
Doubly desaturated product (Δ^5- and Δ^8-desaturases): 13 mass percent of incorporated 20-carbon fatty acids
substrate preference over 20:1 [4]: greater than two-fold preference
desaturated share of the total incorporated 20-carbon fatty acid [4]: 73%
activity of FAT-3 on substrate (in words) [2]: no activity

activity of FAT-4 on substrate (in words) [1]: no activity
SMILES: CCCCC/C=C\C/C=C\C/C=C\CCCCC(=O)O [γ-linolenic acid]

SMILES: CCC=CCC=CCC=CCCCCCCCCCC(=O)O [20:3Δ^11,14,17]
substrate converted to desaturation product [1]: 26%
amount desaturated relative to conventional substrate 20:3Δ^8,11,14 [1]: less than half
One added desaturation (Δ^5- and Δ^8-desaturases): 17 mass percent of incorporated 20-carbon fatty acids
Unconverted substrate (Δ^5- and Δ^8-desaturases): 71 mass percent of incorporated 20-carbon fatty acids
Doubly desaturated product (Δ^5- and Δ^8-desaturases): 11 mass percent of incorporated 20-carbon fatty acids
substrate preference over 20:1 [4]: greater than two-fold preference
desaturated share of the total incorporated 20-carbon fatty acid [4]: 70%
activity of FAT-3 on substrate (in words) [2]: no activity

SMILES: CCCCC/C=C\C/C=C\CCCCCCCC(=O)O [linoleic acid]
activity of FAT-4 on substrate (in words) [1]: no activity
desaturation of Δ^5 and Δ^6 substrates by EFD1 (in words) [4]: no desaturation occurred
activity of FAT-3 on substrate (in words) [2]: able to desaturate

conversion to 20:3Δ^5,8,11 in seed (Δ^5-desaturase): convert
SMILES: CCCCCCCCC=CCC=CCCCCCCC(=O)O [20:Δ^8,11]

SMILES: CCCCCCCCC=CCCCCCCCCCC(=O)O [20:1Δ^11]
activity of FAT-4 on substrate (in words) [1]: No novel peaks were detected
One added desaturation (Δ^5- and Δ^8-desaturases): 18 mass percent of incorporated 20-carbon fatty acids
Unconverted substrate (Δ^5- and Δ^8-desaturases): 72 mass percent of incorporated 20-carbon fatty acids
Doubly desaturated product (Δ^5- and Δ^8-desaturases): 11 mass percent of incorporated 20-carbon fatty acids
desaturated share of the total incorporated 20-carbon fatty acid [4]: 32%
activity of FAT-3 on substrate (in words) [2]: no activity

SMILES: CC/C=C\C/C=C\C/C=C\CCCCCCCC(=O)O [α-linolenic acid]
desaturation of Δ^5 and Δ^6 substrates by EFD1 (in words) [4]: no desaturation occurred
activity of FAT-3 on substrate (in words) [2]: capable of desaturating
